System: Ramos cells
Experiment: cytotoxicity in Ramos cells
Type: cell-based
Conditions: Homo sapiens
Description: The compounds listed in Table 5 were tested for cytotoxicity in Ramos cells. The assay was conducted as described in K. M. Johnson et al. Chemistry & Biology 2005, 12, 485-496.

| SMILES | EC50 [µM] |
| --- | --- |
| O=C1Nc2ccc(Cl)cc2C(c2ccc(N3CC[C@@H](O)C3)nc2)=NC1Cc1ccccc1Cl (stereo partly drawn) [Compound V-32] | 5 to 25 |
| Cc1n[nH]c(C)c1C1=NC(Cc2ccccc2Cl)C(=O)Nc2ccc(Cl)cc21 (stereo not drawn) [Compound V-41] | 5 to 25 |
| CC(=O)NC1CCN(C2=NC(Cc3ccc4ccccc4c3)C(=O)N(C)c3ccc(Cl)cc32)CC1 (stereo not drawn) [Compound V-12] | 5 to 25 |
| CC(=O)Nc1ccc(C2=NC(Cc3ccccc3Cl)C(=O)Nc3ccc(Cl)cc32)cn1 (stereo not drawn) [Compound V-17] | 5 to 25 |
| O=C1Nc2ccc(Cl)cc2C(c2ccnc(N3CCNCC3)c2)=NC1Cc1ccccc1Cl (stereo not drawn) [Compound V-25] | 5 to 25 |
| CN1C(=O)C(Cc2ccc3ccccc3c2)N=C(N2CCC(NC(=O)OC(C)(C)C)CC2)c2cc(Cl)ccc21 (stereo not drawn) [Compound V-9] | ≥ 25 |
| O=C1Nc2ccc(Cl)cc2C(c2cn[nH]c2)=NC1Cc1ccccc1Cl (stereo not drawn) [Compound V-37] | 5 to 25 |
| CN1C(=O)C(Cc2ccc3ccccc3c2)N=C(N2CCC(N)CC2)c2cc(Cl)ccc21 (stereo not drawn) [Compound V-6] | 5 to 25 |
| Nc1ccc(C2=NC(Cc3ccccc3Cl)C(=O)N(C3CC3)c3ccc(Cl)cc32)cn1 (stereo not drawn) [Compound V-36] | 5 to 25 |
| CN1C(=O)C(Cc2ccc3ccccc3c2)N=C(c2cnc(N)cn2)c2cc(Cl)ccc21 (stereo not drawn) [Compound V-3] | ≥ 25 |
| CCc1ccc(CC2N=C(c3cnc(N)nc3)c3cc(Cl)ccc3NC2=O)cc1CC (stereo not drawn) [Compound V-21] | 5 to 25 |
| COc1ccc(C2(O)CCN(C3=NC(Cc4ccc5ccccc5c4)C(=O)Nc4ccc(Cl)cc43)CC2)cc1 (stereo not drawn) [Compound V-8] | ≤ 5 |
| Nc1ncc(C2=NC(Cc3ccccc3Cl)C(=O)Nc3ccc(Cl)cc32)cn1 (stereo not drawn) [Compound V-20] | 5 to 25 |
| CN1CCN(c2ccc(C3=NC(Cc4ccccc4Cl)C(=O)Nc4ccc(Cl)cc43)cn2)CC1 (stereo not drawn) [Compound V-26] | ≤ 5 |
| O=C1CCN(C2=NC(Cc3ccc4ccccc4c3)C(=O)Nc3ccc(Cl)cc32)CC1 (stereo not drawn) [Compound V-7] | 5 to 25 |
| O=C1Nc2ccc(Cl)cc2C(c2cn[nH]c2)=NC1Cc1ccc2ccccc2c1 (stereo not drawn) [Compound V-39] | ≤ 5 |
| O=C1Nc2ccc(Cl)cc2C(c2cnc3[nH]c(=O)[nH]c3c2)=NC1CCc1ccccc1Cl (stereo not drawn) [Compound V-35] | 5 to 25 |
| O=C1Nc2ccc(Cl)cc2C(c2ccc(N3CCCC3)nc2)=NC1Cc1ccccc1Cl (stereo not drawn) [Compound V-31] | ≤ 5 |
| O=C1Nc2ccc(Cl)cc2C(c2ccc(N3CCOCC3)nc2)=NC1Cc1ccccc1Cl (stereo not drawn) [Compound V-28] | ≤ 5 |
| CN1C(=O)C(Cc2ccc3ccccc3c2)N=C(N2CCC(O)CC2)c2cc(Cl)ccc21 (stereo not drawn) [Compound V-1] | ≥ 25 |

| SMILES | EC50 [µM] |
| --- | --- |
| CN1C(=O)C(Cc2ccc3ccccc3c2)N=C(c2ccc(NC(=O)CO)nc2)c2cc(Cl)ccc21 (stereo not drawn) [Compound V-15] | 5 to 25 |
| CC(=O)OCC(=O)Nc1ccc(C2=NC(Cc3ccc4ccccc4c3)C(=O)N(C)c3ccc(Cl)cc32)cn1 (stereo not drawn) [Compound V-14] | ≤ 5 |
| O=C1Nc2ccc(Cl)cc2C(c2ccncc2)=NC1Cc1ccccc1Cl (stereo not drawn) [Compound V-19] | 5 to 25 |
| Nc1cncc(C2=NC(Cc3ccccc3Cl)C(=O)Nc3ccc(Cl)cc32)c1 (stereo not drawn) [Compound V-22] | ≥ 25 |
| CN1C(=O)C(Cc2ccc3ccccc3c2)N=C(c2csc(CO)n2)c2cc(Cl)ccc21 (stereo not drawn) [Compound V-16] | ≤ 5 |
| COCCNc1ccc(C2=NC(Cc3ccccc3Cl)C(=O)Nc3ccc(Cl)cc32)cn1 (stereo not drawn) [Compound V-33] | 5 to 25 |
| O=C1Nc2ccc(Cl)cc2C(c2cnc3[nH]c(=O)[nH]c3c2)=NC1Cc1ccccc1Cl (stereo not drawn) [Compound V-24] | ≤ 5 |
| O=C1Nc2ccc(Cl)cc2C(c2ccc(N3CCC(O)CC3)nc2)=NC1Cc1ccccc1Cl (stereo not drawn) [Compound V-27] | ≤ 5 |
| O=C1Nc2ccc(Cl)cc2C(c2ccc(N3CCC(CO)CC3)nc2)=NC1Cc1ccccc1Cl (stereo not drawn) [Compound V-29] | ≤ 5 |
| Cc1n[nH]cc1C1=NC(Cc2ccccc2Cl)C(=O)Nc2ccc(Cl)cc21 (stereo not drawn) [Compound V-40] | 5 to 25 |
| Nc1ccc(C2=NC(Cc3ccccc3Cl)C(=O)Nc3ccc(Cl)cc32)cn1 (stereo not drawn) [Compound V-18] | 5 to 25 |
| CN1C(=O)C(Cc2ccc3ccccc3c2)N=C(N2CCC(NC(=O)c3ccccc3)CC2)c2cc(Cl)ccc21 (stereo not drawn) [Compound V-13] | ≥ 25 |
| Nc1ccc(C2=NC(Cc3ccc4ccccc4c3)C(=O)Nc3ccc(Cl)cc32)cn1 (stereo not drawn) [Compound V-4] | 5 to 25 |
| CN1C(=O)C(Cc2ccc3ccccc3c2)N=C(N2CCC(NC(=O)CN)CC2)c2cc(Cl)ccc21 (stereo not drawn) [Compound V-10] | ≤ 5 |
| CN1C(=O)C(Cc2ccc3ccccc3c2)N=C(c2ccc(N)cn2)c2cc(Cl)ccc21 (stereo not drawn) [Compound V-11] | ≤ 5 |
| CN1C(=O)C(Cc2ccc3ccccc3c2)N=C(N2CCC3(CC2)OCCO3)c2cc(Cl)ccc21 (stereo not drawn) [Compound V-5] | ≤ 5 |
| COCCNc1ccc(C2=N[C@@H](Cc3ccccc3Cl)C(=O)Nc3ccc(Cl)cc32)cn1 [Compound V-34] | 5 to 25 |
| CN1C(=O)C(Cc2ccc3ccccc3c2)N=C(c2ccc(N)nc2)c2cc(Cl)ccc21 (stereo not drawn) [Compound V-2] | 5 to 25 |
| CC(=O)N1CCN(c2ccc(C3=NC(Cc4ccccc4Cl)C(=O)Nc4ccc(Cl)cc43)cn2)CC1 (stereo not drawn) [Compound V-30] | ≤ 5 |

Source: patent publication US8604023B2, “1,4-benzodiazepinone compounds and their use in treating cancer” (The Regents of the University of Michigan, priority 2009, dated 2013)
